In the NIST ThermoML archive (doi:10.1021/acs.jced.8b00591):

Test: xn = mol fraction of the nth substance listed
Conditions: 101.3 kPa, Liquid; for viscosity: Falling or rolling sphere viscometry; for mass density: Vibrating tube method

CCCC[n+]1ccn(C)c1.O=S(=O)([N-]S(=O)(=O)C(F)(F)F)C(F)(F)F + CCOC(=O)OCC
Conditions	mass density [kg/m3]	viscosity [mPa·s]
288.15 K, x1 = 0.1025	1086.84	2.12
288.15 K, x1 = 0.2198	1177.9	4.415
288.15 K, x1 = 0.3178	1236.57	7.583
288.15 K, x1 = 0.4211	1285.86	13.26
288.15 K, x1 = 0.5268	1327.09	20.12
288.15 K, x1 = 0.622	1358.33	28.36
288.15 K, x1 = 0.7193	1385.68	38.93
288.15 K, x1 = 0.8139	1408.25	50.88
288.15 K, x1 = 0.9088	1428.49	64.94
288.15 K, x1 = 1	1445.66	78.02
293.15 K, x1 = 0.1025	1081.45	1.928
293.15 K, x1 = 0.2198	1172.7	3.925
293.15 K, x1 = 0.3178	1231.47	6.526
293.15 K, x1 = 0.4211	1280.83	11.18
293.15 K, x1 = 0.5268	1322.13	17.25
293.15 K, x1 = 0.622	1353.42	23.42
293.15 K, x1 = 0.7193	1380.79	31.68
293.15 K, x1 = 0.8139	1403.38	40.79
293.15 K, x1 = 0.9088	1423.65	51.44
293.15 K, x1 = 1	1440.84	61.32
298.15 K, x1 = 0.1025	1076.05	1.764
298.15 K, x1 = 0.2198	1167.48	3.517
298.15 K, x1 = 0.3178	1226.35	5.739
298.15 K, x1 = 0.4211	1275.8	9.492
298.15 K, x1 = 0.5268	1317.16	14.77
298.15 K, x1 = 0.622	1348.49	19.58
298.15 K, x1 = 0.7193	1375.9	26.16
298.15 K, x1 = 0.8139	1398.52	33.25
298.15 K, x1 = 0.9088	1418.81	41.43
298.15 K, x1 = 1	1436.01	48.93
303.15 K, x1 = 0.1025	1070.65	1.618
303.15 K, x1 = 0.2198	1162.26	3.168
303.15 K, x1 = 0.3178	1221.23	5.085
303.15 K, x1 = 0.4211	1270.77	8.179
303.15 K, x1 = 0.5268	1312.2	12.6
303.15 K, x1 = 0.622	1343.58	17.03
303.15 K, x1 = 0.7193	1371.04	21.88
303.15 K, x1 = 0.8139	1393.68	27.57
303.15 K, x1 = 0.9088	1413.97	34.06
303.15 K, x1 = 1	1431.21	39.84
308.15 K, x1 = 0.1025	1065.23	1.492
308.15 K, x1 = 0.2198	1157.03	2.873
308.15 K, x1 = 0.3178	1216.12	4.539
308.15 K, x1 = 0.4211	1265.74	7.219
308.15 K, x1 = 0.5268	1307.25	10.76
308.15 K, x1 = 0.622	1338.67	14.69
308.15 K, x1 = 0.7193	1366.17	18.7
308.15 K, x1 = 0.8139	1388.84	23.2
308.15 K, x1 = 0.9088	1409.18	28.32
308.15 K, x1 = 1	1426.43	32.91
313.15 K, x1 = 0.1025	1059.8	1.385
313.15 K, x1 = 0.2198	1151.8	2.614
313.15 K, x1 = 0.3178	1210.99	3.977
313.15 K, x1 = 0.4211	1260.71	6.414
313.15 K, x1 = 0.5268	1302.3	9.287
313.15 K, x1 = 0.622	1333.78	12.63
313.15 K, x1 = 0.7193	1361.32	16.35
313.15 K, x1 = 0.8139	1384.01	19.64
313.15 K, x1 = 0.9088	1404.39	23.69
313.15 K, x1 = 1	1421.66	27.56
318.15 K, x1 = 0.1025	1054.35	1.286
318.15 K, x1 = 0.2198	1146.57	2.391
318.15 K, x1 = 0.3178	1205.88	3.591
318.15 K, x1 = 0.4211	1255.69	5.815
318.15 K, x1 = 0.5268	1297.36	8.069
318.15 K, x1 = 0.622	1328.9	10.92
318.15 K, x1 = 0.7193	1356.48	14.18
318.15 K, x1 = 0.8139	1379.19	16.89
318.15 K, x1 = 0.9088	1399.6	20.05
318.15 K, x1 = 1	1416.91	23.33
323.15 K, x1 = 0.1025	1048.88	1.198
323.15 K, x1 = 0.2198	1141.33	2.194
323.15 K, x1 = 0.3178	1200.77	3.259
323.15 K, x1 = 0.4211	1250.68	5.216
323.15 K, x1 = 0.5268	1292.44	7.105
323.15 K, x1 = 0.622	1324.02	9.492
323.15 K, x1 = 0.7193	1351.66	12.28
323.15 K, x1 = 0.8139	1374.39	14.6
323.15 K, x1 = 0.9088	1394.85	17.26
323.15 K, x1 = 1	1412.17	19.97
328.15 K, x1 = 0.1025	1043.4	1.117
328.15 K, x1 = 0.2198	1136.07	2.025
328.15 K, x1 = 0.3178	1195.65	2.978
328.15 K, x1 = 0.4211	1245.68	4.71
328.15 K, x1 = 0.5268	1287.5	6.138
328.15 K, x1 = 0.622	1319.16	8.288
328.15 K, x1 = 0.7193	1346.84	10.66
328.15 K, x1 = 0.8139	1369.58	12.69
328.15 K, x1 = 0.9088	1390.1	15
328.15 K, x1 = 1	1407.45	17.41

CCCC[n+]1ccn(C)c1.O=S(=O)([N-]S(=O)(=O)C(F)(F)F)C(F)(F)F + COC(=O)OC
Conditions	mass density [kg/m3]	viscosity [mPa·s]
288.15 K, x1 = 0.0898	1178.03	1.605
288.15 K, x1 = 0.1882	1250.71	3.207
288.15 K, x1 = 0.2749	1295.36	5.396
288.15 K, x1 = 0.3754	1334.26	9.186
288.15 K, x1 = 0.472	1362.15	14.3
288.15 K, x1 = 0.5745	1385.8	22.53
288.15 K, x1 = 0.673	1404.16	32.06
288.15 K, x1 = 0.7799	1419.88	44.52
288.15 K, x1 = 0.8948	1434.65	61.53
288.15 K, x1 = 1	1445.66	78.02
293.15 K, x1 = 0.0898	1172.07	1.473
293.15 K, x1 = 0.1882	1245.1	2.886
293.15 K, x1 = 0.2749	1289.95	4.762
293.15 K, x1 = 0.3754	1329.02	7.93
293.15 K, x1 = 0.472	1357.02	12.12
293.15 K, x1 = 0.5745	1380.77	18.87
293.15 K, x1 = 0.673	1399.14	26.3
293.15 K, x1 = 0.7799	1414.97	35.81
293.15 K, x1 = 0.8948	1429.79	48.74
293.15 K, x1 = 1	1440.84	61.32
298.15 K, x1 = 0.0898	1166.07	1.365
298.15 K, x1 = 0.1882	1239.48	2.611
298.15 K, x1 = 0.2749	1284.55	4.235
298.15 K, x1 = 0.3754	1323.78	6.922
298.15 K, x1 = 0.472	1351.9	10.39
298.15 K, x1 = 0.5745	1375.74	16.3
298.15 K, x1 = 0.673	1394.18	21.86
298.15 K, x1 = 0.7799	1410.07	29.38
298.15 K, x1 = 0.8948	1424.93	39.46
298.15 K, x1 = 1	1436.01	48.93
303.15 K, x1 = 0.0898	1160.05	1.263
303.15 K, x1 = 0.1882	1233.85	2.376
303.15 K, x1 = 0.2749	1279.14	3.797
303.15 K, x1 = 0.3754	1318.55	6.1
303.15 K, x1 = 0.472	1346.78	8.998
303.15 K, x1 = 0.5745	1370.71	14
303.15 K, x1 = 0.673	1389.23	18.59
303.15 K, x1 = 0.7799	1405.18	24.46
303.15 K, x1 = 0.8948	1420.08	32.86
303.15 K, x1 = 1	1431.21	39.84
308.15 K, x1 = 0.0898	1154.02	1.173
308.15 K, x1 = 0.1882	1228.22	2.176
308.15 K, x1 = 0.2749	1273.73	3.428
308.15 K, x1 = 0.3754	1313.32	5.404
308.15 K, x1 = 0.472	1341.67	7.885
308.15 K, x1 = 0.5745	1365.7	11.98
308.15 K, x1 = 0.673	1384.29	16.17
308.15 K, x1 = 0.7799	1400.31	20.58
308.15 K, x1 = 0.8948	1415.26	27.73
308.15 K, x1 = 1	1426.43	32.91
313.15 K, x1 = 0.0898	1147.98	1.095
313.15 K, x1 = 0.1882	1222.58	2.002
313.15 K, x1 = 0.2749	1268.32	3.113
313.15 K, x1 = 0.3754	1308.09	4.822
313.15 K, x1 = 0.472	1336.58	6.959
313.15 K, x1 = 0.5745	1360.7	10.3
313.15 K, x1 = 0.673	1379.37	14.01
313.15 K, x1 = 0.7799	1395.44	17.54
313.15 K, x1 = 0.8948	1410.45	23.58
313.15 K, x1 = 1	1421.66	27.56
318.15 K, x1 = 0.0898	1141.93	1.022
318.15 K, x1 = 0.1882	1216.94	1.849
318.15 K, x1 = 0.2749	1262.92	2.837
318.15 K, x1 = 0.3754	1302.88	4.332
318.15 K, x1 = 0.472	1331.49	6.189
318.15 K, x1 = 0.5745	1355.71	8.913
318.15 K, x1 = 0.673	1374.45	12.1
318.15 K, x1 = 0.7799	1390.59	15.2
318.15 K, x1 = 0.8948	1405.67	19.93
318.15 K, x1 = 1	1416.91	23.33
323.15 K, x1 = 0.0898	1135.85	0.958
323.15 K, x1 = 0.1882	1211.3	1.719
323.15 K, x1 = 0.2749	1257.51	2.6
323.15 K, x1 = 0.3754	1297.67	3.943
323.15 K, x1 = 0.472	1326.4	5.54
323.15 K, x1 = 0.5745	1350.73	7.757
323.15 K, x1 = 0.673	1369.55	10.53
323.15 K, x1 = 0.7799	1385.74	13.21
323.15 K, x1 = 0.8948	1400.88	17.01
323.15 K, x1 = 1	1412.17	19.97
328.15 K, x1 = 0.0898	1129.76	0.899
328.15 K, x1 = 0.1882	1205.65	1.588
328.15 K, x1 = 0.2749	1252.1	2.394
328.15 K, x1 = 0.3754	1292.46	3.59
328.15 K, x1 = 0.472	1321.33	4.994
328.15 K, x1 = 0.5745	1345.75	6.772
328.15 K, x1 = 0.673	1364.66	9.191
328.15 K, x1 = 0.7799	1380.9	11.54
328.15 K, x1 = 0.8948	1396.12	14.93
328.15 K, x1 = 1	1407.45	17.41
